The results in this text go back to ChEMBL document CHEMBL1156106 (J Med Chem, 2009).

Broadly, the ED50 is the midpoint of the dose-response relation. What is called Ki is a measure of affinity in units of concentration, obtained from inhibition or displacement. A higher Ki goes with lower affinity.

SMILES strings stand for the structures.

For test [1], the system named is Rattus norvegicus. Nature of the test: Effect on behavioural activity in rat assessed as cocaine-induced lever response at 10 mg/kg, po pretreated with cocaine for 180 mins by drug-discrimination studies. In kind it is functional.
Test [2] relates to Mus musculus. Nature of the test: Antidepressant activity in ip dosed mouse assessed as time to reach peak stimulation of locomotor activity. The format is functional.
Test [3] deals with Rattus norvegicus. Put plainly: Effect on behavioural activity in rat assessed as cocaine-induced lever response at 2.5 mg/kg, ip pretreated with cocaine for 30 mins by drug-discrimination studies. In kind it is functional. As to conditions: route intraperitoneal.
Test [4] relates to Rattus norvegicus. Nature of the test: Effect on behavioural activity in po dosed rat assessed as cocaine-induced lever response pretreated with cocaine by drug-discrimination studies. In kind it is functional.
For test [5], the system named is Rattus norvegicus. Put plainly: Effect on behavioural activity in rat assessed as cocaine-induced lever response at 5 mg/kg, po pretreated with cocaine for 90 mins by drug-discrimination studies. The format is functional.
Test [6] concerns Rattus norvegicus. Nature of the test: Effect on behavioural activity in rat assessed as cocaine-induced lever response at 5 mg/kg, po pretreated with cocaine for 360 mins by drug-discrimination studies. In kind it is functional.
In test [7] the test system is Rattus norvegicus. Put plainly: Effect on behavioural activity in rat assessed as cocaine-induced lever response at 50 mg/kg, po pretreated with cocaine for 90 mins by drug-discrimination studies. The format is functional.
For test [8], the system named is Mus musculus. Put plainly: Antidepressant activity in ip dosed mouse assessed as stimulation of locomotor activity relative to cocaine. The format is functional.
In test [9] the test system is Rattus norvegicus. Put plainly: Effect on behavioural activity in rat assessed as cocaine-induced lever response at 2.5 mg/kg, po pretreated with cocaine for 360 mins by drug-discrimination studies. The format is functional.
The test system of test [10] is Rattus norvegicus. Nature of the test: Effect on behavioural activity in rat assessed as cocaine-induced lever response at 5 mg/kg, po pretreated with cocaine for 45 mins by drug-discrimination studies. The format is functional.
In test [11] the test system is Rattus norvegicus. Nature of the test: Effect on behavioural activity in rat assessed as cocaine-induced lever response at 2.5 mg/kg, po pretreated with cocaine for 90 mins by drug-discrimination studies. In kind it is functional.
The subject of test [12] is Rattus norvegicus. Put plainly: Effect on behavioural activity in rat assessed as cocaine-induced lever response at 5 mg/kg, po pretreated with cocaine for 180 mins by drug-discrimination studies. The format is functional.
The target of test [13] is Sodium-dependent serotonin transporter (Homo sapiens, UniProt P31645). Nature of the test: biochemical. The format is cell-based, HEK293.
Sequence of Sodium-dependent serotonin transporter (P31645 whole entry): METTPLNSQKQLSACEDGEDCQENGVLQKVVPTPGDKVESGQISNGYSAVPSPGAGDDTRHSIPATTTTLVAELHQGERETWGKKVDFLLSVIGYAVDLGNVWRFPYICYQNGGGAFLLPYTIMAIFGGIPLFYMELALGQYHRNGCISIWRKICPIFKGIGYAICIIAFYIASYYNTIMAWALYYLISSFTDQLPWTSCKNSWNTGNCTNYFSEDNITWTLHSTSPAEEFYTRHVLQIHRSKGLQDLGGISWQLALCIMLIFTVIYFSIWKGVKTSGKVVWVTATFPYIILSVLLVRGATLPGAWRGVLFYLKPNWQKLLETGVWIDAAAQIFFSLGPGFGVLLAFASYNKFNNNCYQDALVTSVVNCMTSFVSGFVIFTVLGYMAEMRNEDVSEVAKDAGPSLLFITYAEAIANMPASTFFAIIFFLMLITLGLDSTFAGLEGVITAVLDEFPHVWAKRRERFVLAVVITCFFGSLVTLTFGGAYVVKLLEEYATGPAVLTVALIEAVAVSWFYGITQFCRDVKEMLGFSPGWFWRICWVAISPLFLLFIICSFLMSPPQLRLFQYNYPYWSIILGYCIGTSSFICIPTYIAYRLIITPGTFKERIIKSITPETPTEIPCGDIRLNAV
Test [14] concerns Rattus norvegicus. Put plainly: Effect on behavioural activity in rat assessed as cocaine-induced lever response at 10 mg/kg, ip pretreated with cocaine for 30 mins by drug-discrimination studies. In kind it is functional. The note with it: route intraperitoneal.
The subject of test [15] is Rattus norvegicus. Put plainly: Effect on behavioural activity in rat assessed as cocaine-induced lever response at 100 mg/kg, po pretreated with cocaine for 90 mins by drug-discrimination studies. In kind it is functional.
In test [16] the test system is Rattus norvegicus. Nature of the test: Effect on behavioural activity in rat assessed as cocaine-induced lever response at 10 mg/kg, po pretreated with cocaine for 360 mins by drug-discrimination studies. The format is functional.
For test [17], the system named is Rattus norvegicus. Put plainly: Effect on behavioural activity in rat assessed as cocaine-induced lever response at 100 mg/kg, po pretreated with cocaine for 45 mins by drug-discrimination studies. In kind it is functional.
In test [18] the test system is Rattus norvegicus. Nature of the test: Effect on behavioural activity in rat assessed as cocaine-induced lever response at 2.5 mg/kg, po pretreated with cocaine for 45 mins by drug-discrimination studies. The format is functional.
For test [19], the system named is Rattus norvegicus. Nature of the test: Effect on behavioural activity in rat assessed as cocaine-induced lever response at 10 mg/kg, po pretreated with cocaine for 90 mins by drug-discrimination studies. The format is functional.
The subject of test [20] is Rattus norvegicus. Put plainly: Effect on behavioural activity in rat assessed as cocaine-induced lever response at 2.5 mg/kg, po pretreated with cocaine for 180 mins by drug-discrimination studies. The format is functional.
For test [21], the system named is Rattus norvegicus. Put plainly: Effect on behavioural activity in rat assessed as cocaine-induced lever response at 50 mg/kg, ip pretreated with cocaine for 30 mins by drug-discrimination studies. In kind it is functional. As to conditions: route intraperitoneal.
In test [22] the test system is Rattus norvegicus. Put plainly: Effect on behavioural activity in rat assessed as cocaine-induced lever response at 25 mg/kg, po pretreated with cocaine for 180 mins by drug-discrimination studies. In kind it is functional.
Test [23] concerns the target Sodium-dependent noradrenaline transporter (Homo sapiens, UniProt P23975). Nature of the test: Displacement of [125I]RTI55 from cloned human NET expressed in HEK293 cells. In kind it is cell-based. On the technique in general: Loss of bound radioactivity is the signal in a displacement assay; it reports binding, not function.
Test [24] concerns Mus musculus. Nature of the test: Antidepressant activity in ip dosed mouse assessed as duration of locomotor activity. The format is functional.
For test [25], the system named is Rattus norvegicus. Nature of the test: Effect on behavioural activity in rat assessed as cocaine-induced lever response at 100 mg/kg, po pretreated with cocaine for 360 mins by drug-discrimination studies. In kind it is functional.
In test [26] the test system is Rattus norvegicus. Nature of the test: Effect on behavioural activity in rat assessed as cocaine-induced lever response at 25 mg/kg, po pretreated with cocaine for 360 mins by drug-discrimination studies. In kind it is functional.
Test [27] deals with Rattus norvegicus. Put plainly: Effect on behavioural activity in rat assessed as cocaine-induced lever response at 25 mg/kg, po pretreated with cocaine for 90 mins by drug-discrimination studies. The format is functional.
The subject of test [28] is Rattus norvegicus. Put plainly: Effect on behavioural activity in rat assessed as cocaine-induced lever response at 50 mg/kg, po pretreated with cocaine for 360 mins by drug-discrimination studies. The format is functional.
Test [29] concerns Rattus norvegicus. Nature of the test: Effect on behavioural activity in rat assessed as cocaine-induced lever response at 10 mg/kg, po pretreated with cocaine for 45 mins by drug-discrimination studies. In kind it is functional.
Test [30] deals with Rattus norvegicus. Nature of the test: Effect on behavioural activity in rat assessed as cocaine-induced lever response at 50 mg/kg, po pretreated with cocaine for 45 mins by drug-discrimination studies. In kind it is functional.
In test [31] the test system is Rattus norvegicus. Nature of the test: Effect on behavioural activity in rat assessed as cocaine-induced lever response at 100 mg/kg, po pretreated with cocaine for 180 mins by drug-discrimination studies. The format is functional.
Test [32] concerns Rattus norvegicus. Nature of the test: Effect on behavioural activity in rat assessed as cocaine-induced lever response at 25 mg/kg, po pretreated with cocaine for 45 mins by drug-discrimination studies. The format is functional.
The test system of test [33] is Rattus norvegicus. Put plainly: Effect on behavioural activity in rat assessed as cocaine-induced lever response at 50 mg/kg, po pretreated with cocaine for 180 mins by drug-discrimination studies. In kind it is functional.
Test [34] has as its system Rattus norvegicus. Nature of the test: Effect on behavioural activity in ip dosed rat assessed as cocaine-induced lever response pretreated with cocaine by drug-discrimination studies. The format is functional.
Test [35] deals with Mus musculus. Put plainly: Antidepressant activity in ip dosed mouse assessed as stimulation of locomotor activity. The format is functional.
In test [36] the test system is Rattus norvegicus. Nature of the test: Effect on behavioural activity in rat assessed as cocaine-induced lever response at 25 mg/kg, ip pretreated with cocaine for 80 mins by drug-discrimination studies. The note with it: route intraperitoneal. The format is functional.
The subject of test [37] is Rattus norvegicus. Nature of the test: Effect on behavioural activity in rat assessed as cocaine-induced lever response at 10 mg/kg, ip pretreated with cocaine for 80 mins by drug-discrimination studies. The format is functional. As to conditions: route intraperitoneal.
For test [38], the system named is Rattus norvegicus. Nature of the test: Effect on behavioural activity in rat assessed as cocaine-induced lever response at 100 mg/kg, ip pretreated with cocaine for 80 mins by drug-discrimination studies. The format is functional. The note with it: route intraperitoneal.
The subject of test [39] is Rattus norvegicus. Put plainly: Effect on behavioural activity in rat assessed as cocaine-induced lever response at 50 mg/kg, ip pretreated with cocaine for 80 mins by drug-discrimination studies. In kind it is functional. The note with it: route intraperitoneal.
The test system of test [40] is Rattus norvegicus. Nature of the test: Effect on behavioural activity in rat assessed as cocaine-induced lever response at 50 mg/kg, ip pretreated with cocaine for 50 mins by drug-discrimination studies. In kind it is functional. The note with it: route intraperitoneal.
The test system of test [41] is Rattus norvegicus. Nature of the test: Effect on behavioural activity in rat assessed as cocaine-induced lever response at 100 mg/kg, ip pretreated with cocaine for 50 mins by drug-discrimination studies. The format is functional. As to conditions: route intraperitoneal.
In test [42] the target is Sodium-dependent dopamine transporter (Homo sapiens, UniProt Q01959). Nature of the test: Displacement of [125I]RTI55 from cloned human DAT expressed in HEK293 cells. The format is cell-based.
Sequence of Sodium-dependent dopamine transporter (Q01959 whole entry): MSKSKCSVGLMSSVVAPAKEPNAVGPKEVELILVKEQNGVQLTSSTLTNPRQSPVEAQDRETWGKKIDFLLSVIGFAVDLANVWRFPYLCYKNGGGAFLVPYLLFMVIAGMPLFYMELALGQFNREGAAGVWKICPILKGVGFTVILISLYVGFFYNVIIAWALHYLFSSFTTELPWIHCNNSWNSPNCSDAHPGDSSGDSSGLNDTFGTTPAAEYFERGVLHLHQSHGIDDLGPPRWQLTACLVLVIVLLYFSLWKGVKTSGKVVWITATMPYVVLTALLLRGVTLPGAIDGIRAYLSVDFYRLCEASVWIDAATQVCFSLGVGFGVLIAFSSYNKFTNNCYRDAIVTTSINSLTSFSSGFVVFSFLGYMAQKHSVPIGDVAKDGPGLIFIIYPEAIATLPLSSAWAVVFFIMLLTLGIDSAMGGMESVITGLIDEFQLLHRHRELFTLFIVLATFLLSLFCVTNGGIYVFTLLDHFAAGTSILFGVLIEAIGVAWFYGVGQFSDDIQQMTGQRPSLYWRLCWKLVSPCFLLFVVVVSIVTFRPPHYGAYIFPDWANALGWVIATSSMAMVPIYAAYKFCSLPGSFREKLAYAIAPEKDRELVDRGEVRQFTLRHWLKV
The test system of test [43] is Rattus norvegicus. Nature of the test: Effect on behavioural activity in rat assessed as cocaine-induced lever response at 10 mg/kg, ip pretreated with cocaine for 45 mins by drug-discrimination studies. The format is functional. The note with it: route intraperitoneal.
In test [44] the test system is Rattus norvegicus. Nature of the test: Effect on behavioural activity in rat assessed as cocaine-induced lever response at 100 mg/kg, ip pretreated with cocaine for 45 mins by drug-discrimination studies. The format is functional. The note with it: route intraperitoneal.

Sequence of Sodium-dependent noradrenaline transporter (P23975 whole entry): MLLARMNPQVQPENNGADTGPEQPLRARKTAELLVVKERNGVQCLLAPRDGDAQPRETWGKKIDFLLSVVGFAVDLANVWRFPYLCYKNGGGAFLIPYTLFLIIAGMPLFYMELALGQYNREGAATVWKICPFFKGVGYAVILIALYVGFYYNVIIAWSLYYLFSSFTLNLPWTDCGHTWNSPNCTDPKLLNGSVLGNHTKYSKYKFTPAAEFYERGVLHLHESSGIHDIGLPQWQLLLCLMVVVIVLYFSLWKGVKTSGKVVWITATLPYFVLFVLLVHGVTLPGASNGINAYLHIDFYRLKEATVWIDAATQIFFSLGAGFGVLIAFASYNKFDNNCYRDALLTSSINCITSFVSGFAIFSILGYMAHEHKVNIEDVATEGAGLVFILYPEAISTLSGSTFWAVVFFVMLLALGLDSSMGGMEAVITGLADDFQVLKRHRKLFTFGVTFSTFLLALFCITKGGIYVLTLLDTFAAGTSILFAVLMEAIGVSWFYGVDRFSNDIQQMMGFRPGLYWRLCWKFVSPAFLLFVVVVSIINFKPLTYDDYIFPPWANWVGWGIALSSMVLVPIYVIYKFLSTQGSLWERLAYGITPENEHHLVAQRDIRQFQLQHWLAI

In the case of `CC(NC(C)(C)C)C(=O)c1cc(F)cc(F)c1` (stereo not drawn), the Activity in the test with Rattus norvegicus [1] was 0%; in the test with Rattus norvegicus [3] it was 0%; with Rattus norvegicus [5], 7%; with Rattus norvegicus [6], 0%; with Rattus norvegicus [7] it was 58%; with Mus musculus [8] it was 84%. For the same compound, the Activity was 0% in the test on Rattus norvegicus [9]; 31% in the test with Rattus norvegicus [10]; 20% in the test on Rattus norvegicus [11]; 0% with Rattus norvegicus [12]; 16.7% in the test with Rattus norvegicus [14]; 84% in the test on Rattus norvegicus [15]. The Activity with Rattus norvegicus [16] is 3%; with Rattus norvegicus [17] it was 18%; with Rattus norvegicus [18], 0%; in the test with Rattus norvegicus [19] it was 33%; in the test with Rattus norvegicus [20], 0%; in the test with Rattus norvegicus [21] it was 83.3%. Further, the Activity came to 0% with Rattus norvegicus [22]; 0% in the test with Rattus norvegicus [25]; 7% in the test with Rattus norvegicus [26]; 25% with Rattus norvegicus [27]; 0% in the test on Rattus norvegicus [28]; 0% in the test with Rattus norvegicus [29]. Further, the Activity in the test with Rattus norvegicus [30] was 67%; with Rattus norvegicus [31], 17%; in the test on Rattus norvegicus [32], 4%; in the test on Rattus norvegicus [33], 20%. In addition, in the test with Mus musculus [2], the “Time to peak locomotor stimulation” value came out at 0 min. The ED50 turned out to be 41.5 mg/kg in the test on Rattus norvegicus [4], 7.8 mg/kg with Rattus norvegicus [34] and 35 mg/kg in the test on Mus musculus [35]. For the same compound, the Ki in [13] and in test [23] was over 10 µM each time. For the same compound, the Time in the test with Mus musculus [24] came out at 280 min.

In the case of `CC(NC(C)(C)C)C(=O)c1ccc(Br)cc1` (stereo not drawn), the “Time to peak locomotor stimulation” value in the test with Mus musculus [2] worked out at 140 min. Further, the Activity was found to be 54% in the test with Mus musculus [8]; 16.7% in the test on Rattus norvegicus [36]; 1.7% in the test on Rattus norvegicus [37]; 0.5% with Rattus norvegicus [38]; 20% in the test with Rattus norvegicus [39]. This compound displayed a Ki in test [23] of over 10 µM. In addition, in the test with Mus musculus [24], the Time was determined as 160 min. Further, the ED50 in the test with Mus musculus [35] came out at 29.5 mg/kg.

As for `Cc1cc(C(=O)C(C)NC(C)(C)C)ccc1Br` (stereo not drawn), in the test with Mus musculus [2], the “Time to peak locomotor stimulation” value is recorded as 50 min. For the same compound, the Activity is 36% in the test with Mus musculus [8], 16.7% with Rattus norvegicus [40] and 66.9% with Rattus norvegicus [41]. The Time with Mus musculus [24] is on record as 240 min. For the same compound, in the test with Mus musculus [35], the ED50 is 12.6 mg/kg.

For `CC(NC(C)(C)C)C(=O)c1ccc(F)c(F)c1` (stereo not drawn), in the test with Mus musculus [2], the “Time to peak locomotor stimulation” value worked out at 10 min. The Ki in test [42], in [13] and in [23] was over 10 µM in each case. In addition, the figures for the Activity in the test with Mus musculus [8], with Rattus norvegicus [43] and in the test on Rattus norvegicus [44] were 58%, 1.7% and 63.9%, respectively. Also, the Time with Mus musculus [24] is given as 60 min.
